Results published in US20240252594A1, “COMBINATION THERAPY FOR NEURODEGENERATIVE DISEASES” (ALETA NEUROSCIENCE, LLC, priority 2021, published 2024).

Key:
[1] = tested on: IL-6 mediated inflammation in microglial cells; assay: LPS/ATP-induced neuroinflammation in microglia: IL-6 secretion (Luminex); assay type: cell-based, human; details: for IL-6 in supernatant, Mean ± S.D. / IL-6 in supernatant, Replicate 1 / IL-6 in supernatant, Replicate 2 / IL-6 in supernatant, Replicate 3: LPS (100 ng/mL) + ATP (5 mM), six hours after LPS; for Effect on IL-6 concentration (in words): compared with […] distilled water in presence of LPS and ATP
Excerpt: (§1) In addition to the studies discussed above assessing activity of combinations of drugs on MPP+-induced neurodegeneration toxicity on human dopaminergic neurons as well as on a human iPSC cell line harboring a triplication mutation in alpha-synuclein gene, and measuring neuronal growth, neurite branching and neurofilament heavy chain, we also assessed combinations of drugs in reducing lipopolysaccharide (LPS, from E. coli)-induced neuroinflammation in human microglia cells.
(§2) Lipopolysaccharides are important outer membrane components of gram-negative bacteria such as E. coli and Salmonella. They are large amphipathic glycoconjugates that typically consist of a lipid domain (hydrophobic) attached to a core oligosaccharide and a distal polysaccharide. LPS binds to Toll-like receptor 4 (TLR4) and activates microglia(98) which in turn increases secretion of pro-inflammatory cytokines such as interleukin-6 (IL-6), tumor necrosis factor-α (TNF-α), and CXCL1/GROα.
(§3) Microglia cells were obtained from an iCell® Microglia kit, 01279 (Catalogue N^o R1131) from FUJIFILM Cellular Dynamics. We followed the manufacturer's protocol for activation of the microglial cells with LPS/ATP to subsequently measure the effect of the study drugs on pro-inflammatory cytokines IL-6, TNF-α and CXCL1/GROα.
(§4) All cell culture procedures were performed in aseptic conditions, under a laminar flow hood. Microglia were thawed and cultured following the provider's instructions. The microglia were plated at 50,000 cells per well of a Corning Primaria 96 well plate (Ref N^o 353872) in 100 μL of growth medium. Cells were incubated at 37° C./5% CO2 in a humidified cell culture incubator.
(§5) Three days after cell plating, the test or reference substances (25 μL of solutions at 5×) were applied 1 hour before LPS and ATP stimulation.
(§6) One hour later, 12.5 μL of test or reference substances were added again at 2× concentrated followed by 12.5 μL of LPS at 12× concentration. Fifty microliters of ATP were introduced at 4× concentration, 5 h 30 min after incubation with LPS.
(§7) Six hours after LPS incubation, the supernatant of each well was collected and centrifugated at 1000 g for 10 minutes to remove the cells and debris.
(§8) Fifty microliters of supernatant from NT and LPS+ATP-treated wells were used to determine cytokine secretion (IL-6, TNF-α, CXCL1/GROα) by Luminex platform according to the provider's instructions. Samples were diluted prior to the assay to fit within the standard range if needed. Three wells were tested per each condition (Table 11). Cytokines levels in the supernatant were expressed in pg/mL. The data was analyzed using a One-Way ANOVA followed by Bonferroni test.

[2] = tested on: IL-1B; assay: LPS/ATP-induced neuroinflammation in microglia: IL-1B; assay type: cell-based, human; details: compared with […] distilled water in presence of LPS and ATP
[3] = tested on: TNF-α mediated neuroinflammation in microglial cells; assay: LPS/ATP-induced neuroinflammation in microglia: TNF-α secretion (Luminex); assay type: cell-based, human; details: for TNF-α in supernatant, Mean ± S.D. / TNF-α in supernatant, Replicate 1 / TNF-α in supernatant, Replicate 2 / TNF-α in supernatant, Replicate 3: LPS (100 ng/mL) + ATP (5 mM), six hours after LPS; for Effect on TNF-α concentration (in words): compared with […] distilled water in presence of LPS and ATP
Excerpt: as §1, §2, §3, §4, §5, §6, §7, §8

[4] = tested on: CXCL1/GROα mediated neuroinflammation in microglial cells; assay: LPS/ATP-induced neuroinflammation in microglia: CXCL1/GROα secretion (Luminex); assay type: cell-based, human; details: for CXCL1/GROα in supernatant, Mean ± S.D. / CXCL1/GROα in supernatant, Replicate 1 / CXCL1/GROα in supernatant, Replicate 2 / CXCL1/GROα in supernatant, Replicate 3: LPS (100 ng/mL) + ATP (5 mM), six hours after LPS
Excerpt: as §1, §2, §3, §4, §5, §6, §7, §8

[5] = tested on: human dopaminergic neurons (iCell DopaNeurons); assay: MPP+-induced neurotoxicity: cytolysis of iCell DopaNeurons; assay type: cell-based; details: with MPP+ 100 μM
Procedure: Three different measurements were made in the experiments. Neurite length in mm was measured, which is a measure of increase in dendril length of neurons. […] Secondly, neurite branching was measured. […] Thirdly, cytolysis of the cells was measured. […] Experimental conditions were measured relative to the results of healthy cells in the studies.
(§9) Procedure. iCell DOPA neurons were thawed and cultured following the provider's instructions in Brainphys medium+provided supplements+1% N2 supplement (Stemcell Technologies)+penicillin/streptomycin+Laminin. They were plated at 20000 cells per well of a 384 well plate (pre-coated with poly-D-lysine and Laminin) in 70 μL of growth medium. Cells were incubated at 37° ° C./5% CO2 in a humidified cell culture incubator. Half of the culture medium was changed twice a week.
(§10) MPP+-induced neurotoxicity: 24 hours after neuronal plating, half of the medium was removed and the test compounds were applied with MPP+ treatment, both concentrated at 4×, were added to the wells. For each well, five aliquots were added, corresponding columns A-E in Table 3. In each row, either the compound indicated dissolved in its vehicle noted in Table 2 was added, or only a vehicle was added as indicated. Column E is an indicator of whether MPP+ was added. If not, only the medium was added.
(§11) For the evaluation of conditions 8, 10,12, 22, 24, Neurite outgrowth was followed for subsequent 48 hours using an Incucyte Zoom platform with one phase contrast image every 4 hours, using a 20× objective. After 48 hours, the medium containing test compounds and MPP+ was removed and replaced by fresh medium containing a fluorescent cytolysis marker (red fluorescence) and a live cell marker (green fluorescence). For the evaluation of conditions 10, 12, 24, 38, 40, 51-53, Neurite outgrowth was followed similarly for subsequent 72 hours after MPP+ was added.
Data was normalized to control conditions as there is basal cytolysis in the cell culture after thawing.

[6] = tested on: human dopaminergic neurons (iCell DopaNeurons); assay: MPP+-induced neurotoxicity: neurite outgrowth (neurite length, branch points) on iCell DopaNeurons; assay type: cell-based; details: with MPP+ 100 μM, 72 hours
Excerpt: MPP+(1-methyl-4-phenylpyridinium) is a known neurotoxin which acts by interfering with oxidative phosphorylation in mitochondria by inhibiting complex I, a protein in the membrane of mitochondria in dopaminergic neurons in the substantia nigra.(94) The inhibition of mitochondrial function leads to the depletion of ATP and eventual cell death. MPP+ ultimately causes Parkinsonism in primates by killing certain dopamine-producing neurons in the substantia nigra.
iCell DOPA neurons are neural floor plate-derived midbrain dopaminergic neurons generated from human induced pluripotent stem cells (iPSCs). Dopaminergic neurons, specifically those located in the floor plate-derived midbrain are implicated in neurological disorders such as Parkinson's disease, MSA and DLBD among others. […] The iCellDopa neurons were supplied from FUJIFILM Cellular Dynamics.
as §9, §10, §11
Assay endpoints and data analysis. Phase contrast images were analyzed at each time point to determine the neurite length and number of branch points per mm^2. Kinetic data was plotted and kinetics were normalized by subtracting the value of the first data point (at time of treatment), allowing to measure changes in neurite outgrowth only from the onset of the treatment, starting at zero. Area Under Curve (AUC) of kinetic data was obtained and used for plotting compound's effects and perform statistical analyzes.

[7] = tested on: Alzheimer's disease; details: cited from earlier work

Structure (SMILES)	IL-6 in supernatant, Mean ± S.D. [1]	IL-6 in supernatant, Replicate 1 [1]	IL-6 in supernatant, Replicate 2 [1]	IL-6 in supernatant, Replicate 3 [1]	Effect on IL-6 concentration (in words) [1]	Effect on IL-1B concentration (in words) [2]	TNF-α in supernatant, Mean ± S.D. [3]	TNF-α in supernatant, Replicate 1 [3]	TNF-α in supernatant, Replicate 2 [3]	TNF-α in supernatant, Replicate 3 [3]	Effect on TNF-α concentration (in words) [3]	CXCL1/GROα in supernatant, Mean ± S.D. [4]	CXCL1/GROα in supernatant, Replicate 1 [4]	CXCL1/GROα in supernatant, Replicate 2 [4]	CXCL1/GROα in supernatant, Replicate 3 [4]	also measured
CC(C)(O)c1coc(S(=O)(=O)NC(=O)Nc2c3c(cc4c2CCC4)CCC3)c1 [MCC950]	256.48 ± 40.04 pg/mL	253.54 pg/mL	297.91 pg/mL	218.00 pg/mL	significantly decreased	significantly decreased	30.95 ± 2.25 pg/mL	29.44 pg/mL	29.87 pg/mL	33.53 pg/mL	significantly decreased	469.39 ± 82.91 pg/mL	375.70 pg/mL	499.15 pg/mL	533.31 pg/mL	–
CC(C)[C@H](NC(=O)c1ccc2ccccc2n1)C(=O)N[C@@H](CC(=O)O)C(=O)COc1c(F)cccc1F [PCI/MPP+, Q-VD-OPh]	–	–	–	–	–	–	–	–	–	–	–	–	–	–	–	Cytolysis, Mean ± S.D. ([5]; Table 9.1, plate 1): 65.56 ± 1.89%; Cytolysis, Mean ± S.D. ([5]; Table 9.2, plate 2): 67.93 ± 3.52%; Neurite length, Mean ([6]; Table 7.1, plate 1): 1301.0 mm/mm^2; Neurite Branching, Mean ± S.D. ([6]; Table 7.2, plate 1): 38456.3 ± 11570.7 per mm^2; Neurite length, Mean ± S.D. ([6]; Table 8.1, plate 2): 1430.1 ± 321.7 mm/mm^2; Neurite Branching, Mean ± S.D. ([6]; Table 8.2, plate 2): 52610.1 ± 16660.1 per mm^2
CCOC(=O)C1=CCCC[C@H]1S(=O)(=O)Nc1ccc(F)cc1Cl [TAK-242]	10.47 ± 0.00 pg/mL	<10.47 pg/mL	<10.47 pg/mL	<10.47 pg/mL	significantly decreased	significantly decreased	5.63 ± 0.00 pg/mL	<5.63 pg/mL	<5.63 pg/mL	<5.63 pg/mL	significantly decreased	37.76 ± 6.05 pg/mL	35.76 pg/mL	32.96 pg/mL	44.55 pg/mL	Effect on GROα concentration (in words) ([4]; compared with […] distilled water in presence of LPS and ATP): significantly decreased
Cc1cn(-c2cc(NC(=O)c3ccc(C)c(Nc4nccc(-c5cccnc5)n4)c3)cc(C(F)(F)F)c2)cn1 [nilotinib, Nilotinib]	–	–	–	–	–	–	–	–	–	–	–	–	–	–	–	Hippocampal volume loss attenuated ([7]; at 12 months): −27%; Safety ([7]; in vivo): safe
